Experimental data as given in patent US5252579A, “Macrocyclic immunomodulators” (American Home Products Corporation, priority 1993, dated 1993).
Where two headings read alike, the source gives them in different places.

Legend:
[1] = system: thymocyte proliferation; experiment: comitogen-induced thymocyte proliferation procedure (LAF); format: cell-based, BALB/c mice; settings: for IC50: read-out: LAF IC50
Method: (§1) Immunosuppressive activity for a representative compound of this invention was evaluated in an in vitro standard pharmacological test procedure to measure lymphocyte proliferation (LAF) and in an in vivo standard pharmacological test procedure with evaluated the survival time of a pinch skin graft.
The comitogen-induced thymocyte proliferation procedure (LAF) was used as an […] measure of the immunosuppressive effects of representative compounds. Briefly, cells from the thymus of normal BALB/c mice are cultured for 72 hours with PHA and IL-1 and pulsed with tritiated thymidine during the last six hours. Cells are cultured with and without various concentrations of rapamycin, cyclosporin A, or test compound. Cells are harvested and incorporated radioactivity is determined. Inhibition of lymphoproliferation is assessed as percent change in counts per minute from non-drug treated controls. For each compound evaluated, rapamycin was also evaluated for the purpose of comparison. An IC50 was obtained for each test compound as well as for rapamycin. The results obtained for the representative compounds of this invention were also expressed as a ratio compared with rapamycin. A positive ratio indicates immunosuppressive activity. […] Calculation of the ratio is shown below. [formula]

[2] = system: skin graft; experiment: pinch skin graft survival test procedure; format: in vivo, male BAB/c donors, male C3H(H-2K) recipients; settings: 4 mg/kg of test compound; intraperitoneally or orally; untreated control 7.00 ± 0.00 days
Method: as §1
A representative compound of this invention was also evaluated in an in vivo test procedure designed to determine the survival time of pinch skin graft from male BAB/c donors transplanted to male C3 H(H-2K) recipients. The method is adapted from Billingham R. E. and Medawar P. B., J. Exp. Biol. 28:385-402, (1951). Briefly, a pinch skin graft from the donor was grafted on the dorsum of the recipient as a allograft, and an isograft was used as control in the same region. The recipients were treated with either varying concentrations of test compounds intraperitoneally or orally. Rapamycin was used as a test control. Untreated recipients serve as rejection control. The graft was monitored daily and observations were recorded until the graft became dry and formed a blackened scab. This was considered as the rejection day. The mean graft survival time (number of days±S.D.) of the drug treatment group was compared with the control group. […] Results are expressed as the mean survival time in days. Untreated (control) pinch skin grafts are usually rejected within 6-7 days. […]

[3] = system: Candida albicans; settings: both in vitro and in vivo; cited from earlier work
[4] = alone or in combination with picibanil; cited from earlier work
[5] = system: experimental allergic encephalomyelitis model; settings: model for multiple sclerosis; cited from earlier work
[6] = system: adjuvant arthritis model; settings: model for rheumatoid arthritis; cited from earlier work
[7] = system: IgE-like antibodies; settings: cited from earlier work

Row | Compound | IC50 ([1]; Mus musculus, Thymocyte, 72 h) | Skin Graft survival (days ± SD) [2] | antifungal activity [3] | antitumor activity [4] | effect in experimental allergic encephalomyelitis model [5] | effect in adjuvant arthritis model [6] | inhibition of formation of IgE-like antibodies [7] | T cell proliferation inhibition ([1]; at 10 nM) | T cell proliferation inhibition ([1]; at 0.1 μM) | LAF ratio (compared with rapamycin) ([1]; ratio > 1: inhibits thymocyte proliferation to a greater extent than rapamycin) | IC50 ([1]; thymocytes cultured 72 hours with PHA and IL-1, tritiated thymidine)
1 | CO[C@H]1C[C@@H]2CC[C@@H](C)[C@@](O)(O2)C(=O)C(=O)N2CCCC[C@H]2C(=O)O[C@H]([C@H](C)C[C@@H]2CC[C@@H](O)[C@H](OC)C2)CC(=O)[C@H](C)/C=C(\C)[C@@H](O)[C@@H](OC)C(=O)[C@H](C)C[C@H](C)/C=C/C=C/C=C/1C [Rapamycin] | 4.2 nM | 11.67 ± 0.63 days | antifungal activity, particularly against Candida albicans | antitumor activity | effective | effective | effectively inhibited | – | – | – | –
2 | 23,25-Deepoxy-23,25-(2-aminoethanethio)-rapamycin [Example 2] | – | 9.00 ± 0.63 days | – | – | – | – | – | 77% | 96% | 0.82 | 5.1 nM
